Several values for one entry are separate records, joined by “and”; a condition that tells them apart may be missing. Equal values may be shown once. ± gives the expanded uncertainty stated by the source.
## O=C(C(F)(F)C(F)(F)F)C(F)(C(F)(F)F)C(F)(F)F [dodecafluoro-2-methylpentan-3-one]
300.81 K, 35 kPa, Gas, hot wire
  thermal conductivity: 0.0117 ± 0.00056 W/m/K and 0.01167 ± 0.00058 W/m/K
300.82 K, 27 kPa, Gas, hot wire
  thermal conductivity: 0.01167 ± 0.00055 W/m/K
301.02 K, 35 kPa, Gas, hot wire
  thermal conductivity: 0.01175 ± 0.00055 W/m/K and 0.01169 ± 0.00055 W/m/K
301.02 K, 40 kPa, Gas, hot wire
  thermal conductivity: 0.01176 ± 0.00056 W/m/K and 0.01171 ± 0.00055 W/m/K
301.04 K, 26 kPa, Gas, hot wire
  thermal conductivity: 0.01169 ± 0.00055 W/m/K
301.04 K, 27 kPa, Gas, hot wire
  thermal conductivity: 0.01166 ± 0.00055 W/m/K
301.12 K, 68548 kPa, Liquid, transient hot wire
  thermal conductivity: 0.07848 ± 0.0016 W/m/K
301.12 K, 68619 kPa, Liquid, transient hot wire
  thermal conductivity: 0.07853 ± 0.0016 W/m/K
301.16 K, 59412 kPa, Liquid, transient hot wire
  thermal conductivity: 0.07633 ± 0.0016 W/m/K
301.16 K, 59421 kPa, Liquid, transient hot wire
  thermal conductivity: 0.07635 ± 0.0016 W/m/K
301.2 K, 15856 kPa, Liquid, transient hot wire
  thermal conductivity: 0.06469 ± 0.0014 W/m/K
301.2 K, 15861 kPa, Liquid, transient hot wire
  thermal conductivity: 0.06419 ± 0.0013 W/m/K
301.2 K, 48052 kPa, Liquid, transient hot wire
  thermal conductivity: 0.07348 ± 0.0015 W/m/K
301.21 K, 48059 kPa, Liquid, transient hot wire
  thermal conductivity: 0.07348 ± 0.0015 W/m/K
301.23 K, 38563 kPa, Liquid, transient hot wire
  thermal conductivity: 0.07045 ± 0.0014 W/m/K
301.23 K, 38570 kPa, Liquid, transient hot wire
  thermal conductivity: 0.07088 ± 0.0015 W/m/K
301.25 K, 35 kPa, Gas, hot wire
  thermal conductivity: 0.01177 ± 0.00075 W/m/K and 0.01172 ± 0.00069 W/m/K
301.25 K, 40 kPa, Gas, hot wire
  thermal conductivity: 0.01175 ± 0.00055 W/m/K and 0.01177 ± 0.00055 W/m/K
301.26 K, 29951 kPa, Liquid, transient hot wire
  thermal conductivity: 0.06831 ± 0.0014 W/m/K
301.26 K, 29959 kPa, Liquid, transient hot wire
  thermal conductivity: 0.06831 ± 0.0014 W/m/K
301.27 K, 26 kPa, Gas, hot wire
  thermal conductivity: 0.0117 ± 0.00055 W/m/K
301.27 K, 27 kPa, Gas, hot wire
  thermal conductivity: 0.01169 ± 0.00055 W/m/K
301.27 K, 22365 kPa, Liquid, transient hot wire
  thermal conductivity: 0.06588 ± 0.0014 W/m/K
301.27 K, 22366 kPa, Liquid, transient hot wire
  thermal conductivity: 0.06588 ± 0.0014 W/m/K
301.29 K, 68411 kPa, Liquid, transient hot wire
  thermal conductivity: 0.07844 ± 0.0016 W/m/K
301.3 K, 68477 kPa, Liquid, transient hot wire
  thermal conductivity: 0.07847 ± 0.0016 W/m/K
301.31 K, 15646 kPa, Liquid, transient hot wire
  thermal conductivity: 0.06353 ± 0.0013 W/m/K
301.32 K, 15647 kPa, Liquid, transient hot wire
  thermal conductivity: 0.06353 ± 0.0013 W/m/K
301.32 K, 15982 kPa, Liquid, transient hot wire
  thermal conductivity: 0.06426 ± 0.0013 W/m/K
301.32 K, 68614 kPa, Liquid, transient hot wire
  thermal conductivity: 0.07896 ± 0.0016 W/m/K
301.33 K, 15978 kPa, Liquid, transient hot wire
  thermal conductivity: 0.06437 ± 0.0013 W/m/K
301.33 K, 58469 kPa, Liquid, transient hot wire
  thermal conductivity: 0.07677 ± 0.0016 W/m/K
301.33 K, 68621 kPa, Liquid, transient hot wire
  thermal conductivity: 0.07913 ± 0.0016 W/m/K
301.34 K, 29983 kPa, Liquid, transient hot wire
  thermal conductivity: 0.06887 ± 0.0014 W/m/K
301.34 K, 38644 kPa, Liquid, transient hot wire
  thermal conductivity: 0.07116 ± 0.0015 W/m/K
301.34 K, 38645 kPa, Liquid, transient hot wire
  thermal conductivity: 0.07082 ± 0.0015 W/m/K
301.34 K, 48192 kPa, Liquid, transient hot wire
  thermal conductivity: 0.07381 ± 0.0015 W/m/K
301.34 K, 48193 kPa, Liquid, transient hot wire
  thermal conductivity: 0.07385 ± 0.0015 W/m/K
301.34 K, 58483 kPa, Liquid, transient hot wire
  thermal conductivity: 0.07689 ± 0.0016 W/m/K
301.35 K, 9734 kPa, Liquid, transient hot wire
  thermal conductivity: 0.06181 ± 0.0013 W/m/K
301.35 K, 9737 kPa, Liquid, transient hot wire
  thermal conductivity: 0.06163 ± 0.0013 W/m/K
301.35 K, 29988 kPa, Liquid, transient hot wire
  thermal conductivity: 0.06876 ± 0.0014 W/m/K
301.35 K, 59394 kPa, Liquid, transient hot wire
  thermal conductivity: 0.07632 ± 0.0016 W/m/K
301.35 K, 59405 kPa, Liquid, transient hot wire
  thermal conductivity: 0.07636 ± 0.0016 W/m/K
301.36 K, 186 kPa, Liquid, transient hot wire
  thermal conductivity: 0.05707 ± 0.0012 W/m/K
301.36 K, 22446 kPa, Liquid, transient hot wire
  thermal conductivity: 0.0654 ± 0.0014 W/m/K
301.37 K, 186 kPa, Liquid, transient hot wire
  thermal conductivity: 0.05699 ± 0.0012 W/m/K
301.37 K, 4437 kPa, Liquid, transient hot wire
  thermal conductivity: 0.05962 ± 0.0012 W/m/K
301.37 K, 4442 kPa, Liquid, transient hot wire
  thermal conductivity: 0.05915 ± 0.0012 W/m/K
301.37 K, 22450 kPa, Liquid, transient hot wire
  thermal conductivity: 0.06542 ± 0.0014 W/m/K
301.38 K, 9940 kPa, Liquid, transient hot wire
  thermal conductivity: 0.06178 ± 0.0013 W/m/K
301.39 K, 94 kPa, Liquid, transient hot wire
  thermal conductivity: 0.05683 ± 0.0012 W/m/K
301.39 K, 100 kPa, Liquid, transient hot wire
  thermal conductivity: 0.05659 ± 0.0012 W/m/K
301.39 K, 9943 kPa, Liquid, transient hot wire
  thermal conductivity: 0.06137 ± 0.0013 W/m/K
301.39 K, 68810 kPa, Liquid, transient hot wire
  thermal conductivity: 0.07913 ± 0.0016 W/m/K
301.39 K, 68825 kPa, Liquid, transient hot wire
  thermal conductivity: 0.07893 ± 0.0016 W/m/K
301.4 K, 48039 kPa, Liquid, transient hot wire
  thermal conductivity: 0.0735 ± 0.0015 W/m/K
301.4 K, 48041 kPa, Liquid, transient hot wire
  thermal conductivity: 0.07342 ± 0.0015 W/m/K
301.41 K, 182 kPa, Liquid, transient hot wire
  thermal conductivity: 0.057 ± 0.0012 W/m/K
301.42 K, 181 kPa, Liquid, transient hot wire
  thermal conductivity: 0.05699 ± 0.0012 W/m/K
301.43 K, 4512 kPa, Liquid, transient hot wire
  thermal conductivity: 0.0591 ± 0.0012 W/m/K
301.43 K, 4517 kPa, Liquid, transient hot wire
  thermal conductivity: 0.05911 ± 0.0012 W/m/K
301.43 K, 38558 kPa, Liquid, transient hot wire
  thermal conductivity: 0.0709 ± 0.0015 W/m/K
301.44 K, 38562 kPa, Liquid, transient hot wire
  thermal conductivity: 0.07087 ± 0.0015 W/m/K
301.46 K, 29951 kPa, Liquid, transient hot wire
  thermal conductivity: 0.06828 ± 0.0014 W/m/K
301.47 K, 29958 kPa, Liquid, transient hot wire
  thermal conductivity: 0.0683 ± 0.0014 W/m/K
301.48 K, 22365 kPa, Liquid, transient hot wire
  thermal conductivity: 0.06549 ± 0.0014 W/m/K
301.49 K, 22364 kPa, Liquid, transient hot wire
  thermal conductivity: 0.06585 ± 0.0014 W/m/K
301.49 K, 68338 kPa, Liquid, transient hot wire
  thermal conductivity: 0.07849 ± 0.0016 W/m/K
301.5 K, 35 kPa, Gas, hot wire
  thermal conductivity: 0.01174 ± 0.00056 W/m/K
301.5 K, 40 kPa, Gas, hot wire
  thermal conductivity: 0.01178 ± 0.00055 W/m/K
301.5 K, 41 kPa, Gas, hot wire
  thermal conductivity: 0.01177 ± 0.00056 W/m/K
301.5 K, 68274 kPa, Liquid, transient hot wire
  thermal conductivity: 0.07839 ± 0.0016 W/m/K
301.51 K, 35 kPa, Gas, hot wire
  thermal conductivity: 0.01178 ± 0.00068 W/m/K
301.52 K, 27 kPa, Gas, hot wire
  thermal conductivity: 0.01171 ± 0.00056 W/m/K
301.53 K, 27 kPa, Gas, hot wire
  thermal conductivity: 0.0117 ± 0.00055 W/m/K
301.54 K, 121 kPa, Liquid, transient hot wire
  thermal conductivity: 0.05731 ± 0.0012 W/m/K and 0.05707 ± 0.0012 W/m/K
301.54 K, 15641 kPa, Liquid, transient hot wire
  thermal conductivity: 0.06381 ± 0.0013 W/m/K
301.54 K, 15643 kPa, Liquid, transient hot wire
  thermal conductivity: 0.06352 ± 0.0013 W/m/K
301.54 K, 59383 kPa, Liquid, transient hot wire
  thermal conductivity: 0.07629 ± 0.0016 W/m/K
301.54 K, 59392 kPa, Liquid, transient hot wire
  thermal conductivity: 0.07615 ± 0.0016 W/m/K
301.56 K, 34 kPa, Gas, transient hot wire
  thermal conductivity: 0.01199 ± 0.0017 W/m/K
301.57 K, 34 kPa, Gas, transient hot wire
  thermal conductivity: 0.01211 ± 0.0008 W/m/K
301.59 K, 15866 kPa, Liquid, transient hot wire
  thermal conductivity: 0.06262 ± 0.0013 W/m/K
